Reference: PubChem BioAssay (NCI)
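Results reflect a 48-hour exposure of cells in 96-well plates to compound at five concentrations. GI50 = concentration required for 50% inhibition of growth. TGI denotes the concentration required for complete inhibition of growth.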

Assays:
Experiment in all cases: growth of human tumour cells (NCI), 48 h
HCT-116 colon = test system: HCT-116 colon
M14 melanoma = test system: M14 melanoma
MALME-3M melanoma = test system: MALME-3M melanoma
NCI-H23 lung = test system: NCI-H23 lung
OVCAR-3 ovarian = test system: OVCAR-3 ovarian
SN12C renal = test system: SN12C renal
SW-620 colon = test system: SW-620 colon
U251 CNS = test system: U251 CNS
UACC-257 melanoma = test system: UACC-257 melanoma
UO-31 renal = test system: UO-31 renal

Structure (SMILES)	GI50 (HCT-116 colon) [µM]	TGI (HCT-116 colon) [µM]	GI50 (M14 melanoma) [µM]	TGI (M14 melanoma) [µM]	GI50 (MALME-3M melanoma) [µM]	TGI (MALME-3M melanoma) [µM]	GI50 (NCI-H23 lung) [µM]	TGI (NCI-H23 lung) [µM]	GI50 (OVCAR-3 ovarian) [µM]	TGI (OVCAR-3 ovarian) [µM]	GI50 (SN12C renal) [µM]	TGI (SN12C renal) [µM]	GI50 (SW-620 colon) [µM]	TGI (SW-620 colon) [µM]	GI50 (U251 CNS) [µM]	TGI (U251 CNS) [µM]	GI50 (UACC-257 melanoma) [µM]	TGI (UACC-257 melanoma) [µM]	GI50 (UO-31 renal) [µM]	TGI (UO-31 renal) [µM]
NCCCNCCCNc1nc2ccccc2c2[nH]c3ccccc3c12	0.091	1.87	0.672	2.35	1	2.74	0.0936	1.06	0.449	2.43	0.0224	1.28	0.19	1.64	0.0938	1.32	2.31	6.2	0.309	3.17
C=C1C(=O)C23C(O)C1CCC2C12CO[C@]3(O)[C@@H](O)C1C(C)(C)CCC2O (stereo partly specified)	–	15.5	–	24.1	–	17.5	–	43.4	–	30.3	–	27.9	–	23.8	–	32.2	–	23.8	–	31.1
Nc1nccc(C#Cc2cncnc2Nc2ccc(OCc3cccc(F)c3)c(Cl)c2)n1	3.48	7.43	4.51	9.43	5.26	13.1	4.22	8.92	3.83	7.18	3.22	9.98	3	7.66	3.82	7.42	3.92	7.64	4.34	10.1
CC[C@]12C=CCN3CC[C@]4(C(=C(C(=O)OC)C1)Nc1ccccc14)[C@@H]32	3.16	10.9	2.97	12.5	3.43	15.2	4.37	17.7	2.45	7.51	3.62	18.2	3.18	12.3	3.64	16.4	5.06	26.5	4.11	16.5
CC1(C)CC[C@]2(C(=O)O)CCC3(C)C(=CCC4[C@@]5(C)CC[C@H](OC6OCC(O)C(O)C6OC6OC(CO)C(O)C(O)C6O)C(C)(C)C5CC[C@]43C)C2C1 (stereo partly specified)	–	7.06	–	3.45	–	3.54	–	4.2	–	4.39	–	3.42	–	4.03	–	3.4	–	9.21	–	3.71
COc1cccc(C2C3=C(COC3=O)N(CCO)c3cc4c(cc32)CCC4)c1 (stereo unspecified)	0.0526	0.692	0.0358	0.208	0.915	> 50	0.0604	4.02	0.018	0.0591	0.269	> 32.6	0.0252	> 50	0.143	11.5	32.6	> 50	0.0192	1.44
COc1ccc(C=O)c(N(C)C(=O)C(C)(C)C)c1	–	> 100	–	> 100	–	> 100	–	> 100	–	> 100	–	> 100	–	> 100	–	> 100	–	> 100	–	> 100
C[CH2][Sn]([CH2]C)([O]C(=O)c1cc(OC)c(OC)c(OC)c1)[O][Sn]([CH2]C)([CH2]C)[O]C(=O)c1cc(OC)c(OC)c(OC)c1	68.2	> 100	32.5	> 78.9	17.3	32.2	16.7	36.5	> 64.4	> 100	44	99.4	19.1	34.9	18.2	33.1	21.3	52	> 100	> 100
O=C1c2cccnc2-c2nc(-c3ccccc3)cc3c2c1nc1ccccc13	1.91	7.2	3.57	15.7	3.38	16.1	1.73	7.48	0.31	> 100	7.14	21.1	2.56	> 35.2	4.09	19.6	0.835	8.08	3.8	11.2
S=c1nc(/C=C/c2ccc(Cl)c(Cl)c2)[nH][nH]1	–	> 100	94.7	> 100	–	> 100	–	> 100	–	> 100	–	> 100	–	> 100	–	> 100	–	> 100	–	> 100
